Reference: patent US4816477A, “Antihypercholesterolemic β-lactones” (Merck & Co., Inc., priority 1987, dated 1989)
pIC50: −log10 of the molar value.

Biological target: T1, HMG-CoA synthase (Rattus norvegicus, UniProt P17425)
T1 construct: The livers from male Charles River CD rats (225-350 g) were homogenized in 0.25 M sucrose; from tissue; host or cells: rat liver (male Charles River CD rats), 100,000×g supernatant, ammonium sulfate precipitate, DEAE-52 fraction
T1 sequence (P17425 1-520): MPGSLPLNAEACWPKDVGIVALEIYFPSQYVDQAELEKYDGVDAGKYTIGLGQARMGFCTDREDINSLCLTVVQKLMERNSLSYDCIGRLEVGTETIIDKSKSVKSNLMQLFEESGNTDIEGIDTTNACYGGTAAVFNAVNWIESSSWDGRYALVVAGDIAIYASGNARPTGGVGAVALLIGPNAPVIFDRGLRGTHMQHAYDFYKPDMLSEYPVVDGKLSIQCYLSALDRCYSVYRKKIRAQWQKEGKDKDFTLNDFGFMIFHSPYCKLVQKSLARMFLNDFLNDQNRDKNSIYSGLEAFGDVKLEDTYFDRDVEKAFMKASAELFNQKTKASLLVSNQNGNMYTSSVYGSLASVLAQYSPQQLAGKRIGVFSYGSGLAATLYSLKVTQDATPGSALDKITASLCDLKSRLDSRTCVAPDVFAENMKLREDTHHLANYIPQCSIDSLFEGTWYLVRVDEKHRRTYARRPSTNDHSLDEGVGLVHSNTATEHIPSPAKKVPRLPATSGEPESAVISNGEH
Assay: HMG-CoA Synthase Inhibition Assay
Type: biochemical
Details: for pIC50: in vitro, enzyme from rat liver
Procedure: The intrinsic HMG-CoA synthase inhibition activity of the compounds of this invention is measured by the standard in vitro protocol described below:
The livers from male Charles River CD rats (225-350 g) were homogenized in 0.25 M sucrose which was adjusted with phenylmethylsulfonylfluoride (PMSF) and N-p-tosyl-1-lysine chloromethyl ketone (TLCK) so that the final concentration of each was […], respectively. The homogenate was centrifuged at 15,000×g for 20 minutes, the supernatant filtered through a fine nylon screen to remove most of the fat layer and recentrifuged at 100,000×g for 1 hour. This supernatant was removed and 1 M potassium phosphate, dithiothreitol (DTT) and ethylene glycol-bis(β-aminoethyl ether)-N,N,N',N'-tetraacetic acid (EGTA) added to give a final concentration of 0.1 M (pH 7.2), 0.5 mM and 0.1 mM, respectively. Solid ammonium sulfate was added to 50% saturation to the protein solution, it was centrifuged at 15,000×g and the supernatant discarded. This precipitated protein could be stored at -70° C. for at least one month with very little loss of activity. The ammonium sulfate precipitate was dissolved in an minimal amount of 0.06 M potassium phosphate buffer (pH 7.2) containing 0.5 mM dithiothreitol and 0.1 mM EGTA (referred to as 0.06 M phosphate buffer) and dialyzed overnight against 2 liters of the same buffer to remove the ammonium sulfate and to inactivate HMG-CoA lyase [Clinkenbeard, et al., J. Biol. Chem. 250, 3108-3116(1975)].
The dialyzed extract was added to a column of DEAE-52 (Whatman) which had been equilibrated with 0.06 M phosphate buffer (10 mg of protein to 1 ml bed volume of the resin). The DEAE-cellulose was eluted with 0.06 M phosphate buffer until the optical density at 280 nm was essentially zero. This fraction contained the β-ketoacetyl-CoA thiolase activity. The HMG-CoA synthase was eluted from the column with 0.1 M phosphate buffer (pH 7.2) containing 0.5 mM DTT and 0.1 mM EGTA, and was virtually free of all thiolase activity. The protein was precipitated by the addition of ammonium sulfate to give 50% saturation. This solution was stirred for 10 minutes at 4° C. and the precipitate collected by centrifugation at 15,000 rpm for 10 minutes. The supernatant was discarded and the precipitate dissolved in a minimum of 0.06 M phosphate buffer, pH 7.2 (about 10 ml) and the enzyme stored at -80° C.
HMG-CoA Synthase Inhibition Assay
Enzyme protein (ca. […]) was added to a solution containing 117 mM Tris-HCl (pH 8.0), 11.7 mM MgCl2, 1.17 mM ethylenediaminetetraacetic acid (EDTA), 0.58 mM dithiothreitol, and the indicated concentrations of the test compound (added as a 2 mg/ml solution in dimethylsulfoxide). The incubation took place in a volume of 0.085 ml at 30° in a shaking water bath. After 5 minutes, […] of a solution containing acetoacetyl-CoA and 0.1 μCi of 1-[^14 C]-acetyl-CoA was added to give a final concentrations of 0.1 and 0.4 μM, respectively. The incubation was continued for 10 more minutes and the reaction stopped by the addition of […] of the assay mixture to 0.2 ml of 6N HCl in a glass scintillation vial. The vial was heated for 1 hour at 120° after which time 0.2 ml more of 6N HCl was again added to each vial and the heating continued for another hour. Following this, 1.0 ml of 0.9% saline was added to each vial and finally 10 ml of scintillation liquid. Radioactivity was determined in a Packard Tri-Carb liquid scintillation counter. Percent inhibition is calculated by the formula: [formula] IC50 values were determined by plotting the log of the concentration of the test compound verses the percentage inhibition and fitting a straight line to the resulting data by using the least squares method.

Structure (SMILES)	pIC50	further results
COC(=O)/C=C(C)/C=C(\C)CC(C)CCCCC1OC(=O)C1CN=[N+]=[N-] (stereo not shown) [R^1=OCH3, R^2=N3, methyl 11-(3-azidomethyl-4-oxo-2-oxetano)-3,5,7-trimethyl-2,4-undecadienoate]	7.00	
CC(=C\C(=O)O)/C=C(\C)CC(C)CCCCC1OC(=O)C1CCl (stereo not shown) [R^1=OH, R^2=Cl, 11-(3-Chloromethyl-4-oxo-2-oxetano)-3,5,7-trimethyl-2,4-undecadienoic acid]	6.52	
COC(=O)/C=C(C)/C=C(\C)CC(C)CCCCC1OC(=O)C1CSC(C)=O (stereo not shown) [R^1=OCH3, R^2=drawing 3, methyl 11-(3-acetylthiomethyl-4-oxo-2-oxetano)-3,5,7-trimethyl-2,4-undecadienoate]	5.00	inhibition at 10 µM (at 10^-5 M, read-out: percent inhibition): 47.9%
CC(=C\C(=O)O)/C=C(\C)CC(C)CCCCC1OC(=O)C1CF (stereo not shown) [R^1=OH, R^2=F, 11-(3-fluoromethyl-4-oxo-2-oxetano)-3,5,7,-trimethyl-2,4-undecadienoic acid]	6.55	
CC(=C\C(=O)O)/C=C(\C)CC(C)CCCCC1OC(=O)C1C (stereo not shown) [R^1=OH, R^2=H, 11-(3-methyl-4-oxo-2-oxetano)-3,5,7-trimethyl-2,4-undecadienoic acid]	7.00	
COC(=O)/C=C(C)/C=C(\C)CC(C)CCCCC1OC(=O)C1C (stereo not shown) [R^1=OCH3, R^2=H, methyl 11-(3-methyl-4-oxo-2-oxetano)-3,5,7-trimethyl-2,4-undecadienoate]		inhibition at 6 µM (at 6 × 10^-6 M, read-out: percent inhibition): 22.7%; IC25 (concentration giving 22.7 percent inhibition, read-out: IC25 (printed in the IC50 column, in parentheses)): 6000 nM
CC(=C\C(=O)O)/C=C(\C)CC(C)CCCCC1OC(=O)C1CBr (stereo not shown) [R^1=OH, R^2=Br, 11-(3-bromomethyl-4-oxo-2-oxetano)-3,5,7-trimethyl-2,4-undecadienoic acid]	5.85	
COC(=O)/C=C(C)/C=C(\C)CC(C)CCCCC1OC(=O)C1CC#N (stereo not shown) [R^1=OCH3, R^2=CN, methyl 11-(3-cyanomethyl-4-oxo-2-oxetano)-3,5,7-trimethyl-2,4-undecadienoate]	5.54	
